The record followed here is patent US6329531A, “Optical diagnostic agents for diagnosis of neurodegenerative diseases by means of near infrared radiation (NIR radiation)” (Schering AG, priority 1996, dated 2001).

Where a name gives a salt, the structure may show the parent alone.

This series in a line: Absorption and fluorescence maxima of the dye in water. In kind it is physicochemical. Particulars: H2O.
In the case of `CC1(C)C(=CC=CC=CC=CC2=[N+](CCCCS(=O)(=O)[O-])c3ccc(C(=O)NCC(COS(=O)(=O)O)OS(=O)(=O)O)cc3C2(C)C)N(CCCCS(=O)(=O)O)c2ccccc21` (stereo not shown) [Example 1, N-(2,3-disulfato)propyl-1,1'-bis-(4-sulfobutyl)indotricarbocyanine-5-carboxylic acid amide, trisodium salt], the “λMax.absorption (H2 O)” value is 746 nm and the “λMax.fluorescence (H2 O)” value amounted to 780 nm.

Take `CC1(C)C(=CC=CC=CC=CC2=[N+](CCCCS(=O)(=O)[O-])c3ccc(C(=O)N[C@H]4C(O)O[C@H](CO)[C@@H](O)[C@@H]4OS(=O)(=O)O)cc3C2(C)C)N(CCCCS(=O)(=O)O)c2ccccc21` (stereo partly drawn) [Example 2, Bis-1,1'-(4-Sulfobutyl)indotricarbocyanine-5-carboxylic acid-α-D-glucosamide-3"-sulfate, disodium salt]: the “λMax.absorption (H2 O)” value is reported as 745 nm and the “λMax.fluorescence (H2 O)” value is given as 779 nm.

As to `CC1(C)C(=CC=CC=CC=CC2=[N+](CCCCS(=O)(=O)[O-])c3ccc(C(=O)N[C@H]4C(O)O[C@H](CO)[C@@H](O)[C@@H]4OS(=O)(=O)O)cc3C2(C)C)N(CCCCS(=O)(=O)O)c2ccc(C(=O)N[C@H]3C(O)O[C@H](CO)[C@@H](O)[C@@H]3OS(=O)(=O)O)cc21` (stereo partly drawn) [Example 3, Bis-1,1'-(4-Sulfobutyl)indotricarbocyanine-5,5'-dicarboxylic acid-di-α-D-glucosamide-di-3"-sulfate, trisodium salt], the “λMax.absorption (H2 O)” value is reported as 754 nm and the “λMax.fluorescence (H2 O)” value was 790 nm.

As to `CC1(C)C(=CC=CC=CC=CC2=[N+](CCCCS(=O)(=O)[O-])c3ccc(C(=O)N[C@H]4C(O)O[C@H](CO)[C@H](O)[C@@H]4O[C@@H]4O[C@H](C(=O)O)[C@@H](O)[C@H](O)[C@H]4O)cc3C2(C)C)N(CCCCS(=O)(=O)[O-])c2ccccc21.[Na+]` (stereo partly shown) [Example 4, N-Chondrosin-bis-1,1'-(4-sulfobutyl)indotricarbocyanine-5-carboxylic acid amide, sodium salt], the “λMax.absorption (H2 O)” value amounted to 746 nm and the “λMax.fluorescence (H2 O)” value stood at 779 nm.

`CC1(C)C(=CC=CC=CC=CC2=[N+](CCCCS(=O)(=O)[O-])c3ccc(C(=O)NC4OC(CO)C(OC5OC(CO)C(OC6OC(CO)C(O)C(O)C6O)C(O)C5O)C(O)C4O)cc3C2(C)C)N(CCCCS(=O)(=O)O)c2ccccc21` (stereo not shown) [Example 5]: the “λMax.absorption (H2 O)” value is on record as 748 nm and the “λMax.fluorescence (H2 O)” value was found to be 779 nm.
